Reference: patent US8629169B2, “4-substituted-3-phenylsulfanylmethyl-bicyclo[3.1.0]hexane compounds as mGluR 2/3 antagonists” (Eli Lilly and Company, priority 2010, dated 2014)

Tests used:
[1] = tested on: mice; test: mFST alone and in combination with SSRI; type: in vivo, mouse; conditions: Example 12 10 mg/kg p.o.
[2] = tested on: male NIH-Swiss mice; test: Forced-swim test in mice (mFST); type: in vivo, mouse; conditions: for ED60 (mg/kg): immobility, last 4 min of 6 min; for Maximal Decrease (1 − compound/control) * 100%: immobilization time
[3] = tested on: mGlu2+/+ and mGlu2−/− mice; test: mFST in mGlu2 knock-out mice and +/+ littermates
Protocol: Briefly, male NIH-Swiss mice (Harlan Sprague-Dawley, Indianapolis, Ind.) weighing between 25-30 g are used. Group housed animals are removed from the vivarium to the testing area in their own cages and allowed to adapt to the new environment for at least 1 hour before testing. […] Mice are placed in a cylinder (diameter: 10 cm; height: 25 cm) filled with 6 cm of water (22-25° C.) for 6 min. The duration of immobility during the last 4 min. of the 6 min. period of the test was scored. A mouse is recorded as immobile when floating motionless or making only those movements necessary to keep its head above water.
In other experiments, mice with receptor deletions (mGlu2 knock-out mice) are studied; these mice are bred by heterozygote×heterozygote breeding and used as littermates for −/− and +/+ mouse comparisons (Taconic Farms).

[4] = Brain and plasma exposure levels in the SSRI combination study; conditions: combination with fluoxetine or citalopram versus alone
[5] = tested on: male Wistar rats; test: Wakefulness and behavioral monitoring in rats (EEG/EMG/LMA); type: in vivo; conditions: rat; for Locomotor Activity Intensity, mean difference from vehicle controls: averaged over the first 7 hr post-treatment; for Cumulative Time Awake 8-19 hours, mean difference from vehicle controls: rebound hypersomnolence measure
Protocol: Representative compounds of the present invention are tested in rats for their ability to increase the amount of time in a state of wakefulness without undesired effects such as inhibition of REM sleep, waking motor impairment (disproportionate hyper- or hypolocomotion), and/or rebound hypersomnia Test animals are continuously monitored by electro-encephalograms (EEG), electromyograms (EMG), and motion to measure cumulative time awake, rebound hypersomnia, and locomotor activity intensity during wakefulness. Methods for such studies are known in the art (see for example methods described in Edgar D M, Seidel W F. Modafinil induces wakefulness without intensifying motor activity or subsequent rebound hypersomnolence in the rat. J Pharmacology & Experimental Therapeutics 1997; 283: 757-769; van Gelder R N, Edgar D M, Dement W C. Real-time automated sleep scoring: validation of a microcomputer-based system for mice. Sleep 1991, 14: 48-55; and Gross B A, Walsh C M, Turakhia A A, Booth V, Mashour G A, Poe G R. Open-source logic-based automated sleep scoring software using electrophysiological recordings in rats. J Neurosci Methods. 2009; 184(1):10-8.) Studies are conducted as follows:
Adult, male Wistar rats (approximately 270-300 g at time of surgery) are surgically fitted for chronic recording of EEG, EMG, body temperature, and motion as follows: Rats are surgically prepared with a cranial implant consisting of four stainless steel screws for EEG recording (two frontal [3.9 mm anterior from bregma, and ±2.0 mm mediolaterally] and two occipital [6.4 mm posterior from bregma, ±5.5 mm mediolaterally]), and with two Teflon-coated stainless steel wires for EMG recording (positioned under the nuchal trapezoid muscles). All leads are soldered to a miniature connector (Microtech, Boothwyn, Pa.) prior to surgery. The implant assembly is affixed to the skull by the combination of the stainless steel EEG recording screws, cyanoacrylate applied between the implant connector and skull, and dental acrylic. Body temperature and locomotor activity is monitored via a miniature transmitter (Minimitter PDT4000G, Philips Respironics, Bend, Oreg.) surgically placed into the abdomen. At least 3 weeks are allowed for recovery.
Each rat is housed individually within a microisolator cage modified with an inserted polycarbonate filter-top riser to allow more vertical headroom. A flexible cable that minimally restricts movement is connected at one end to a commutator affixed to the cage top and at the other end to the animal's cranial implant. Each cage is located within separate, ventilated compartments of a stainless steel sleep-wake recording chamber. Food and water are available ad libitum and the ambient temperature is maintained at about 23±1° C. A 24-hr light-dark cycle (LD 12:12) using fluorescent light is maintained throughout the study. Relative humidity averages approximately 50%. Animals are undisturbed for at least 30 hrs before and after each treatment.
The vehicle or one of the compound dose levels is administered pseudo-randomly such that no rat receives the same treatment twice, and no rat receives more than two of the 8 treatments in any one study. Each rat is removed from its cage for about a minute to be weighed and treated. At least 6 days “washout” period precede and follow each treatment.
Sleep and wakefulness discrimination may be automated (e.g., Van Gelder et al. 1991; Edgar et al. 1997, Winrow et al., 2010; Gross et al., 2009).

[6] = target: T1, human mGlu2 receptor (Homo sapiens, UniProt Q14416); test: mGlu2 receptor cAMP antagonist assay; type: cell-based; conditions: reversal of DCG IV (EC90) inhibition of forskolin-stimulated cAMP; relative IC50
T1 construct: expressed in transfected cells; host or cells: AV12 cells co-expressing rat EAAT1
T1 sequence (Q14416 19-872): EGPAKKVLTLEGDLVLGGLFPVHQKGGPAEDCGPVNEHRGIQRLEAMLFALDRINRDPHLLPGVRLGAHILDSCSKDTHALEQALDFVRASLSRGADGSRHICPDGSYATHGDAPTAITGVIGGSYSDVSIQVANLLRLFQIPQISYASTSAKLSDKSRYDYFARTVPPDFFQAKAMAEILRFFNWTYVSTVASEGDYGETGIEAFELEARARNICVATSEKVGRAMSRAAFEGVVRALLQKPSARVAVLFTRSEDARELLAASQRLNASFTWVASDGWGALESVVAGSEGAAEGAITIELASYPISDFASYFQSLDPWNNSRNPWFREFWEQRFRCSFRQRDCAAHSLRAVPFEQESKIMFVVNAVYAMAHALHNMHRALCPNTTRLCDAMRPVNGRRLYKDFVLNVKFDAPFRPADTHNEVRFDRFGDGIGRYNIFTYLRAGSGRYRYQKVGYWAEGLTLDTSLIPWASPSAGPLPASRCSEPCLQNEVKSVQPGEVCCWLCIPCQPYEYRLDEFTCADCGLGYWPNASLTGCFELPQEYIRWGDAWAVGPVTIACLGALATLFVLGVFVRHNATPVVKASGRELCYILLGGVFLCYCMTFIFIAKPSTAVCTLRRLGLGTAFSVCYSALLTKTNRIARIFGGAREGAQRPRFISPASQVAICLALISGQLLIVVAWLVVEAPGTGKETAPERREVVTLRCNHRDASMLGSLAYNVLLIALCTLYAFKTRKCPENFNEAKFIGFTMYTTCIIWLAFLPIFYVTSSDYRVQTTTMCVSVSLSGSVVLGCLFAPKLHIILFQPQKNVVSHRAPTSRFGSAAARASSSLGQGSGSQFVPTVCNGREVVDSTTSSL
Protocol: (§1) Antagonist activity is assayed in recombinant AV12 cells stably expressing human mGlu2 or mGlu3 receptors and the rat glutamate transporter EAAT1 (Excitatory Amino Acid Transporter 1). The cell lines are maintained by culturing in DMEM with high glucose and pyridoxine hydrochloride supplemented with 5% dialyzed fetal bovine serum (FBS), 1 mM sodium pyruvate, 1 mM HEPES and 1 mM L-glutamine; geneticin and hygromycin B are used as selection antibiotics.
(§2) Reversal of the inhibition of forskolin-stimulated cAMP production by test compounds is measured using homogeneous time resolved fluorescence technology (HTRF; Cisbio cat #62AM4PEB). The medium is removed and the cells are incubated with 100 μl cAMP stimulation buffer (STIM) for 30 minutes at 37° C. […] Cells are incubated at 37° C. for 20 minutes. To measure the cAMP levels, cAMP-d2 conjugate and anti cAMP-cryptate conjugate in lysis buffer are incubated with the treated cells at room temperature for 1 hour (mGlu2) or 1.5 hour (mGlu3). […] The raw data are converted to cAMP amount (pmole/well) using a cAMP standard curve generated for each experiment. Relative IC50 values are calculated from the top-bottom range of the concentration response curve using a four-parameter logistic curve fitting program (ActivityBase v5.3.1.22).

[7] = target: T2, human mGlu8 receptor (Homo sapiens, UniProt O00222); test: FLIPR calcium antagonist assay for mGlu receptor selectivity, mGlu8; type: cell-based
T2 construct: expressed in transfected cells; host or cells: AV12 cells co-expressing rat EAAT1 and Galpha15
T2 sequence (O00222 34-908): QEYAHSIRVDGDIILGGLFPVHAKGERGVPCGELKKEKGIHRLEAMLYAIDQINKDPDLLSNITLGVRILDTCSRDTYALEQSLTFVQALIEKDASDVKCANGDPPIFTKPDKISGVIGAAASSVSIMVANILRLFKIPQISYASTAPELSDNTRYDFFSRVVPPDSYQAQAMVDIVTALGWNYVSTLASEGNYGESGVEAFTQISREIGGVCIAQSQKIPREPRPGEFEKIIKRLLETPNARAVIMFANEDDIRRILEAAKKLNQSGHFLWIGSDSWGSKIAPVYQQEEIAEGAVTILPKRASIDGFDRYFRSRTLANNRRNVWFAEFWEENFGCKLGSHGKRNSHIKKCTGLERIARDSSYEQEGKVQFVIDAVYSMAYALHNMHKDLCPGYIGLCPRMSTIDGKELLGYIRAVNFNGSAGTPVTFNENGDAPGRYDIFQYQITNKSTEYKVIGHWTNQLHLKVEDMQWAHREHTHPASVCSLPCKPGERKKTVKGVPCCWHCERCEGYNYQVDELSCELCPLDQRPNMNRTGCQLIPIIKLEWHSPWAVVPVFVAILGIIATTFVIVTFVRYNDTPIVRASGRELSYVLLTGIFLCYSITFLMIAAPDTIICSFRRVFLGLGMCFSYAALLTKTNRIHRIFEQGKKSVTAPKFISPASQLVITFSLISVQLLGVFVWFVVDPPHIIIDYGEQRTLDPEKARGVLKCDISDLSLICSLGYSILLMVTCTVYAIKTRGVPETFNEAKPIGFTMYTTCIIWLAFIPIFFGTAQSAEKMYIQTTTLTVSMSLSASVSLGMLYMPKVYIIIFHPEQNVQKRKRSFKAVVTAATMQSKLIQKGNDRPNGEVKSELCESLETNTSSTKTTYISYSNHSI
From the text: (§3) The relative antagonist potencies of the compounds of the invention for the other human mGlu receptors can be assessed with either a cAMP assay or fluorometric calcium response assay (see for example Fell et al., JPET (in press)). Briefly, individual AV12 cell lines containing the rat EAAT1 glutamate transporter and stably expressing the human mGlu1, 2, 3, 4, 5, 6, & 8 receptors are used for these studies. The mGlu1 and 5 receptors are Gq-coupled, so they naturally signal through phospholipase C, producing a calcium flux response which can be used to measure receptor activation using a Fluorometric Imaging Plate Reader (FLIPR, Molecular Devices). The cell lines expressing the mGlu2, 3, 4, and 8 receptor are designed to express the Gα15 subunit so that these Gi-coupled receptors will generate a calcium flux response similar to the mGlu1 and 5 receptor expressing cell lines. The mGlu6 receptor is tested in a cAMP format using methods analogous to those developed for mGlu2 and mGlu3 above. These cell lines are maintained as previously described except that amounts of L-glutamine and selection agents (geneticin, hygromycin B, zeocin, and blasticidin) may vary depending on the cell line. Confluent cultures are passaged biweekly.
Intracellular calcium levels are monitored using FLIPR before and after the addition of test compounds and Fluo-3 AM (Invitrogen) or Calcium 4 (Molecular Devices) dye, depending on the cell line. Cells are plated 24 hours prior to assay in a variable concentration of glutamine and a variable density of cells per well, depending on the cell line. The medium is removed and the cells are incubated with 8 μM of dye (50 μl per well) for 90 or 120 minutes (depending on cell line) at 25° C. […] The results are analyzed using GraphPad Prism v4.03 to calculate the concentrations of glutamate needed to induce the EC90 (antagonist assay) and EC10 (potentiator assay) responses.
Compounds are tested at each mGlu receptor in a two-addition FLIPR assay using a 10-point concentration response profile starting at a final concentration of 25 μM for the agonist assay and 12.5 μM for the potentiator and antagonist assays. […] Agonist effects are quantified as percent stimulation induced by compound alone relative to the maximal glutamate response. Antagonist effects are quantified by calculating the percent inhibition of the EC90 glutamate response caused by the compound. Potentiation effects are quantified as percent increase in the presence of an EC10 response in glutamate relative to the ECmax response. All data are calculated as relative IC50 or EC50 values using a four-parameter logistic curve fitting program (ActivityBase v5.3.1.22).

[8] = target: T3, human mGlu5 receptor (Homo sapiens, UniProt P41594); test: FLIPR calcium antagonist assay for mGlu receptor selectivity, mGlu5; type: cell-based; conditions: inhibition of EC90 glutamate response, read-out: mGlu5 % inhib. @12.5 μM
T3 construct: expressed in transfected cells; host or cells: AV12 cells co-expressing rat EAAT1
From the text: (§4) The relative antagonist potencies of the compounds of the invention for the other human mGlu receptors can be assessed with either a cAMP assay or fluorometric calcium response assay (see for example Fell et al., JPET (in press)). Briefly, individual AV12 cell lines containing the rat EAAT1 glutamate transporter and stably expressing the human mGlu1, 2, 3, 4, 5, 6, & 8 receptors are used for these studies. The mGlu1 and 5 receptors are Gq-coupled, so they naturally signal through phospholipase C, producing a calcium flux response which can be used to measure receptor activation using a Fluorometric Imaging Plate Reader (FLIPR, Molecular Devices). […]
(§5) Intracellular calcium levels are monitored using FLIPR before and after the addition of test compounds and Fluo-3 AM (Invitrogen) or Calcium 4 (Molecular Devices) dye, depending on the cell line. […] The results are analyzed using GraphPad Prism v4.03 to calculate the concentrations of glutamate needed to induce the EC90 (antagonist assay) and EC10 (potentiator assay) responses.
(§6) Compounds are tested at each mGlu receptor in a two-addition FLIPR assay using a 10-point concentration response profile starting at a final concentration of 25 μM for the agonist assay and 12.5 μM for the potentiator and antagonist assays. […] Agonist effects are quantified as percent stimulation induced by compound alone relative to the maximal glutamate response. […]

[9] = target: T4, human mGlu6 receptor (Homo sapiens, UniProt O15303); test: mGlu6 cAMP antagonist assay (reference agonist L-AP4); type: cell-based; conditions: cAMP format
T4 construct: expressed in transfected cells; host or cells: AV12 cells co-expressing rat EAAT1
T4 sequence (O15303 25-877): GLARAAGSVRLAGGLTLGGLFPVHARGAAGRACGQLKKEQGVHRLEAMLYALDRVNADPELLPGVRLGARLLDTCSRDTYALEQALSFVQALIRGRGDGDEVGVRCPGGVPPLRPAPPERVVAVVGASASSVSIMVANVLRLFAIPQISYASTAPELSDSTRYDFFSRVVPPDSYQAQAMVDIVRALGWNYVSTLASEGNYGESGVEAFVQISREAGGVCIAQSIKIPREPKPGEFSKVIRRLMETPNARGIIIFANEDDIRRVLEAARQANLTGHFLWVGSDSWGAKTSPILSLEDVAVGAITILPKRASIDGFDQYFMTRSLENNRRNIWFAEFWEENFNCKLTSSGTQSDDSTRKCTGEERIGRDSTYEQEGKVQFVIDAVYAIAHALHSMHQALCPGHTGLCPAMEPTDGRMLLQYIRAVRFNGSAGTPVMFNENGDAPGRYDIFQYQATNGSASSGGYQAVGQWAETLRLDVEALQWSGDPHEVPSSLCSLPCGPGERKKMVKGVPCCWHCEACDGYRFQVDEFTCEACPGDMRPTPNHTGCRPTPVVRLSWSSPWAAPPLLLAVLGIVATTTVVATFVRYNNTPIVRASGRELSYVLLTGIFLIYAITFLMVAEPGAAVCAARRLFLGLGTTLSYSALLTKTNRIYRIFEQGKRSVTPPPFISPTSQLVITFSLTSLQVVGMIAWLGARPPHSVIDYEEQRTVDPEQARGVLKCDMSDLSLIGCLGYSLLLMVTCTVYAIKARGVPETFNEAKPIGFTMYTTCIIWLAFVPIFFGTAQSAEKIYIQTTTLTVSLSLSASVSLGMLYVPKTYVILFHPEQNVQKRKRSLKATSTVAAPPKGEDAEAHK
From the text: as §3, with “These cell lines are maintained as previously described except that amounts of L-glutamine and selection agents (geneticin, hygromycin B, zeocin, and blasticidin) may vary depending on the cell line. Confluent cultures are passaged biweekly.” left out
Antagonist activity in mGlu6 cells is measured using cAMP in a method analogous to that described above for mGlu2 and mGlu3 activity, except that the reference agonist was L-AP4 (Tocris). […] Relative IC50 and EC50 values are calculated from the top-bottom range of the concentration response curve using a four-parameter logistic curve fitting program (ActivityBase v5.3.1.22).

[10] = target: T5, human mGlu1 receptor (Homo sapiens, UniProt Q13255); test: FLIPR calcium antagonist assay for mGlu receptor selectivity, mGlu1; type: cell-based; conditions: inhibition of EC90 glutamate response, read-out: mGlu1 % inhib. @12.5 μM
T5 construct: expressed in transfected cells; host or cells: AV12 cells co-expressing rat EAAT1
T5 sequence (Q13255 19-1194): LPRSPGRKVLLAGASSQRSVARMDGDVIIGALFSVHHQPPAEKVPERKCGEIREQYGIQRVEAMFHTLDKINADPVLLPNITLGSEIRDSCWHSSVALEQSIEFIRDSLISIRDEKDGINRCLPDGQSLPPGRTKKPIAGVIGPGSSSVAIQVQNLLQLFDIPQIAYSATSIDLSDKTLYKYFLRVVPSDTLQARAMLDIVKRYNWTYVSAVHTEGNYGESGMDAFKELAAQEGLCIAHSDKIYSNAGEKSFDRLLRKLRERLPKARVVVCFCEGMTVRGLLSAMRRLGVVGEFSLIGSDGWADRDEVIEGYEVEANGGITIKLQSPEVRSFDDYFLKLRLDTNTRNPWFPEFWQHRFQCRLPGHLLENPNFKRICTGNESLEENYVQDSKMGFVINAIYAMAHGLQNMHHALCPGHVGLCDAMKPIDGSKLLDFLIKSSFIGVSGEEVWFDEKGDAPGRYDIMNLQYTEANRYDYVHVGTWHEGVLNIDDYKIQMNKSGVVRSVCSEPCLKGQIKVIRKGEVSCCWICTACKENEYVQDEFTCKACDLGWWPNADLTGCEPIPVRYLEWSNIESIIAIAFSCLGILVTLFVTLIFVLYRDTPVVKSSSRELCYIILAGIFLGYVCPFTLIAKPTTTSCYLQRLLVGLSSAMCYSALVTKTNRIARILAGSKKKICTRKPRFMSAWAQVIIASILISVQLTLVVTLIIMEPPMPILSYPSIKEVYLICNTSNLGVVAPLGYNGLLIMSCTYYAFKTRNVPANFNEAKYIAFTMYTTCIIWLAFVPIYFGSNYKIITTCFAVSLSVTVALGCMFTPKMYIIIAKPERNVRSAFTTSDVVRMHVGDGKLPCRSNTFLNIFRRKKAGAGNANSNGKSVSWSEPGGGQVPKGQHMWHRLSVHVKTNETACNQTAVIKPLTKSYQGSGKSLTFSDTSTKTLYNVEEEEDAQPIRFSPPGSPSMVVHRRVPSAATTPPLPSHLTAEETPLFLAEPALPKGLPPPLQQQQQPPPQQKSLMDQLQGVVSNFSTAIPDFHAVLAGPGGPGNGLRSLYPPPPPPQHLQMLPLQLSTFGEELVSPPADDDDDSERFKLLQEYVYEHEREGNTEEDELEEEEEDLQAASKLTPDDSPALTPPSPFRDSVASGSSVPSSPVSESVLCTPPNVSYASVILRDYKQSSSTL
From the text: as §4, §5, §6

[11] = target: T6, human mGlu3 receptor (Homo sapiens, UniProt Q14832); test: mGlu3 receptor cAMP antagonist assay; type: cell-based; conditions: reversal of DCG IV (EC90) inhibition of forskolin-stimulated cAMP; relative IC50
T6 construct: expressed in transfected cells; host or cells: AV12 cells co-expressing rat EAAT1
Protocol: as §1, §2

[12] = target: T7, human mGlu4 receptor (Homo sapiens, UniProt Q14833); test: FLIPR calcium antagonist assay for mGlu receptor selectivity, mGlu4; type: cell-based; conditions: inhibition of EC90 glutamate response, read-out: mGlu4 % inhib. @12.5 μM
T7 construct: expressed in transfected cells; host or cells: AV12 cells co-expressing rat EAAT1 and Galpha15
T7 sequence (Q14833 33-912): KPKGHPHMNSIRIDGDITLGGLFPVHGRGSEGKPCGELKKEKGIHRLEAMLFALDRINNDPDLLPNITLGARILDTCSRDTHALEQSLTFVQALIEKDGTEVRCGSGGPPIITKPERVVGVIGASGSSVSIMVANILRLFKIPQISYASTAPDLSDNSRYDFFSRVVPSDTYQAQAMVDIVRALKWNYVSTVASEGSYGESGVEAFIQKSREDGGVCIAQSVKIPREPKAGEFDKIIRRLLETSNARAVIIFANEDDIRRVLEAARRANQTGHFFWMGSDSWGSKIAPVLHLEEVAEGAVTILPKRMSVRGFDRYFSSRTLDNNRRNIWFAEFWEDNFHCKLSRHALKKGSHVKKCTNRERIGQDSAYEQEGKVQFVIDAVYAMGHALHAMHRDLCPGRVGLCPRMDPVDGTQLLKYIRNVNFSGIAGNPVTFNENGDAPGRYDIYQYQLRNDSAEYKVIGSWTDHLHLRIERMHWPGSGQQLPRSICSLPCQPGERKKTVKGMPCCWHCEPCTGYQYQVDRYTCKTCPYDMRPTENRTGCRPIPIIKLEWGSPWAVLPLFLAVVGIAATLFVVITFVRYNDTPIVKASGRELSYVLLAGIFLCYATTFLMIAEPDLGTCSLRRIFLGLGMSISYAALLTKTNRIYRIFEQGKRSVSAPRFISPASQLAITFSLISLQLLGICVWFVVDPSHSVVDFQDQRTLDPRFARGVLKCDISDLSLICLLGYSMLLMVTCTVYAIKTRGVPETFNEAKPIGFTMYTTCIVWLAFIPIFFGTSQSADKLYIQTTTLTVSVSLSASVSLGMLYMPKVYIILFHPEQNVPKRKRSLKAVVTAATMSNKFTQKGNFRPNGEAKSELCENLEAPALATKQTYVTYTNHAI
From the text: as §4, §5, §6

[13] = citalopram experiment, citalopram 1 mg/kg i.p.
[14] = fluoxetine experiment, fluoxetine 10 mg/kg i.p.

Structure (SMILES): CC(C)OC(=O)OCOC(=O)[C@H]1[C@@H]2[C@H](O)[C@@H](CSc3ccc(F)c(F)c3)[C@@](N)(C(=O)OCOC(=O)OC(C)C)[C@H]12.Cl [Example 12, Bis({[(1-methylethoxy)carbonyl]oxy}methyl)(1S,2R,3S,4S,5R,6R)-2-amino-3-{[(3,4-difluorophenyl)sulfanyl]methyl}-4-hydroxybicyclo[3.1.0]hexane-2,6-dicarboxylate hydrochloride]
- Immobilization Time [1, 13]: 140 s
- Maximal Decrease (1 − compound/control) * 100% [1, 13]: 20.9%
- Immobilization Time [1, 14]: 130 s
- Maximal Decrease (1 − compound/control) * 100% [1, 14]: 24.5%
- ED60 (mg/kg) ([2]; p.o.): 12.0 (p.o.) mg/kg
- Maximal Decrease (1 − compound/control) * 100% ([2]; p.o.): 58.4%
- immobility time in mGlu2+/+ mice ([3]; 30 mg/kg, po, 120 min prior): decrease immobility time
- brain and plasma levels of the active di-acid moiety [4]: no increase in exposure levels
- Cumulative Time Awake first 7 hours, mean difference from vehicle controls ([5]; 10 mg/kg PO): 40.2 min
- Locomotor Activity Intensity, mean difference from vehicle controls ([5]; 10 mg/kg PO): 4.5 counts of LMA per minute of EEG-defined wakefulness
- Cumulative Time Awake 8-19 hours, mean difference from vehicle controls ([5]; 10 mg/kg PO): 12.1 min
- Cumulative Time Awake first 7 hours, mean difference from vehicle controls ([5]; 30 mg/kg PO): 109.3 min
- Locomotor Activity Intensity, mean difference from vehicle controls ([5]; 30 mg/kg PO): 3.0 counts of LMA per minute of EEG-defined wakefulness
- Cumulative Time Awake 8-19 hours, mean difference from vehicle controls ([5]; 30 mg/kg PO): -4.1 min
- Cumulative Time Awake first 7 hours, mean difference from vehicle controls ([5]; 60 mg/kg PO): 118.9 min
- Locomotor Activity Intensity, mean difference from vehicle controls ([5]; 60 mg/kg PO): 4.9 counts of LMA per minute of EEG-defined wakefulness
- Cumulative Time Awake 8-19 hours, mean difference from vehicle controls ([5]; 60 mg/kg PO): 2.7 min

Structure (SMILES): Cl.N[C@]1(C(=O)O)[C@@H]2[C@@H](C(=O)O)[C@@H]2[C@H](O)[C@H]1CSc1ccc(F)c(Cl)c1 [Example 2, (1S,2R,3S,4S,5R,6R)-2-Amino-3-{[(3-chloro-4-fluorophenyl)sulfanyl]methyl}-4-hydroxybicyclo[3.1.0]hexane-2,6-dicarboxylic acid hydrochloride]
- IC50 [6]: 12.7 ± 2.3 nM
- inhibition at 12.5 µM ([7]; 12.5 μM, inhibition of EC90 glutamate response, read-out: mGlu8 % inhib. @12.5 μM): 68.7%
- IC50 ([7]; FLIPR antagonist, in brackets under % inhib.): 7860 nM
- inhibition at 12.5 µM [8]: 21.4%
- IC50 [9]: 1390 nM
- ED60 (mg/kg) ([2]; i.p.): 24.5 (i.p.) mg/kg
- Maximal Decrease (1 − compound/control) * 100% ([2]; i.p.): 33.5%
- inhibition at 12.5 µM [10]: 7.9%
- immobility time in mGlu2+/+ mice ([3]; 10 mg/kg, i.p., 30 min prior): significantly decrease immobility time
- IC50 [11]: 13.4 ± 3.4 nM
- inhibition at 12.5 µM [12]: 28%
